Reference: US9848603B2, “Methods for protecting plants with antifungal compositions” (priority 2008, dated 2017)

Legend:
Fov hyphae [1] = assay: Immunogold electron microscopy of NaD1-treated hyphae; type: cell-based, Fusarium oxysporum f. sp. vasinfectum; details: NaD1 (10 μM) for 2 h
Saccharomyces cerevisiae = assay: Effect of NaD1 on growth of yeast strains
Experimental: (§1) The effect of NaD1 on the growth of the yeast strains Candida albicans, Pichia pastoris and Saccharomyces cerevisiae (from Department of Microbiology, La Trobe University) was assayed in microtitre plates. Cells were grown in YPD for 48 h, then counted using a haemocytometer and diluted to a concentration of 5×10^4 cells/mL in fresh YPD. Cell suspension (100 μL) containing 0-10 μM NaD1 was added to the wells of a 96-well microtitre plate and incubated for 48 h at 30° C. Growth was determined by measuring the optical density at 595 nm using a microtitre plate reader. Each test was performed in quadruplicate.

Fov hyphae [2] = assay: Membrane permeabilization of Fov hyphae, SYTOX green uptake; type: cell-based, Fusarium oxysporum f. sp. vasinfectum
Fov [3] = assay: Effect of metal ions (CaCl2, MgCl2) on NaD1 activity against Fov; details: NaD1 10 μM; growth of Fov
Experimental: The activity of NaD1 against Fov was examined as described with varying concentrations of CaCl2 (0.1, 0.2, 0.5, 1.0 and 2.0 μM) or MgCl2 (1.0, 2.0, 10, 20 and 50 μM) present in the medium to determine the effects of divalent cations on NaD1 activity.

Verticillium dahliae [4] = type: cell-based; details: read-out: NaD1 IC50
F. graminearum hyphae [5] = type: cell-based, Fusarium graminearum
Thielaviopsis basicola = type: cell-based; details: read-out: NaD1 IC50
F. graminearum hyphae [6] = type: cell-based, Fusarium graminearum; details: various concentrations of NaD1
Fusarium graminearum [7] = type: cell-based; details: defensin in combination with the triazole tebuconazole
Candida albicans = assay: Effect of NaD1 on growth of yeast strains
Experimental: as §1

[8] = system: Fusarium oxysporum f. sp. vasinfectum (Fov); assay: Glasshouse bioassay of transgenic and non-transgenic cotton seed coated with fungicide in Fov infected soil; details: transgenic Coker expressing NaD1, seeds not coated with fungicide
Experimental: Cultures of Fov (isolate #24500 VCG 01111) were prepared in millet and incorporated into a soil mix. The infected soil was used to grow line 35.125.1 and non-transgenic Coker 315. The culture of Fov was prepared in ½ strength PDB (12 g/L potato dextrose) and grown for approximately one week at 26° C. The culture (5 to 10 mL) was used to infect autoclaved hulled millet which was then grown for 2 to 3 weeks at room temperature. The infected millet was incorporated into a pasteurized peat based soil mix at 1% (v/v), by vigorous mixing in a 200 L compost tumbler. The infected soil was transferred to plastic containers (10 L of mix per 13.5 L container).
The cotton seed was either non-coated or coated with the fungicide HEC5725 (active ingredient Fluoxastrobin, Bayer Crop Science, batch number 06529/0022) at a rate of 1 mL/kg of seed and allowed to dry prior to sowing. Water was added to facilitate even coating of the seed (62.5 mL/kg of seed). Untreated samples were treated with water only.
Forty eight seeds were planted for each test (transgenic and non-transgenic, coated and non-coated seed). Seed was sown directly into the containers, 12 seed per box in a 3×4 array. […]
Plants were grown for 7 weeks. Foliar symptom development was measured throughout the trial and disease score was determined by destructive sampling at the end of the trial. […]

[9] = system: Fusarium oxysporum f. sp. vasinfectum (Fov); assay: Growth cabinet bioassay of transgenic and non-transgenic cotton seed coated with fungicide in Fov infected soil; details: transgenic Coker expressing NaD1, seeds not coated with fungicide
Experimental: The assay was conducted as described for the glasshouse assay except for the following modifications.
Thirty seeds were planted for each test (transgenic and non-transgenic, coated and non-coated seed). Seed was sown directly into the containers, 24 seed per box in a 4×6 array. Six seed for each test were sown randomly in each box. Seeds were germinated for 7 days, conditions were 16 hours light at 30° C. and 8 hours dark at 15° C., with a ramp of 2° C. per hour. For the remainder of the experiment the conditions were 16 hours light at 25° C. and 8 hours dark at 10° C. with a ramp of 2° C. per hour.
Plants were grown for 4 weeks. Foliar symptom development was measured throughout the trial and disease score was determined by destructive sampling at the end of the trial. The following rating was used to determine the disease score: 0=no symptoms, 1=vascular browning to base of stem, 2=vascular browning to cotyledons, 3=vascular browning past cotyledons, 4=vascular browning to true leaves, 5=dead. The average disease score was an average for all seeds that germinated.

Bacillus cereus = assay: Effect of NaD1 on bacterial growth; type: cell-based
Leptosphaeria maculans [10] = type: cell-based; details: read-out: NaD1 IC50
Escherichia coli = assay: Effect of NaD1 on bacterial growth; type: cell-based
Aspergillus nidulans = type: cell-based; details: read-out: NaD1 IC50
Fov [11] = details: transgenic cotton variety expressing NaD1, field trials; cited from earlier work
Staphylococcus aureus = assay: Effect of NaD1 on bacterial growth; type: cell-based
[12] = system: Spodoptera frugiperda (Sf21) insect cells; assay: Effect of NaD1 on growth of insect cells
Experimental: The effect of NaD1 on the growth of Insect cells was determined as follows. Spodoptera frugiperda (Sf21) insect cells were grown to ˜90% confluency in Sf-900 II serum free media (Gibco™, 20 mL) in a 75 cm^2 tissue culture flask with a vented cap (Nunc). Cells were then split one in two with fresh media. Cell suspension was added to 96-well flat-bottomed microtitre plate wells (190 μL/well) and the cells were allowed to settle for 30 min prior to addition of NaD1 (10 μL) to give a final concentration of 0-10 μM. Growth was monitored until the cells reached confluency (˜48 h).

Fov hyphae [13] = assay: Isolation of NaD1 from treated hyphae (SDS-PAGE and immunoblotting of cytoplasmic contents)
Experimental: Fov hyphae were grown as described above prior to the addition of NaD1 (10 μM final concentration) to 1 mL of the culture. Samples (100 μL) were collected after 0, 5, 10, 30, 60, 90 and 120 min. Hyphae were collected by centrifugation (10 min, 10,000×g) and the supernatant was stored at −20° C. for analysis. Hyphae were washed (2×10 min) with KCl (0.6 M) to remove any ionically bound protein before they were resuspended in 50 mM CAPS buffer (pH 10.0) containing 10 mM DTT for 20 min. Hyphae were collected by centrifugation and the supernatant, containing cell wall proteins, was collected for analysis. The pellet (containing cells) was resuspended in water and the cells were lysed using glass beads (Sigma, 60 mg) and vortexing (3×10 min). Cellular debris was removed by centrifugation (16,000×g, 10 min) and the supernatant collected for analysis. All samples were then analyzed by SDS-PAGE and immunoblotting.

[14] = system: Fusarium oxysporum f. sp. vasinfectum (Fov); assay: Field trial of transgenic and non-transgenic cotton seed coated with fungicide in Fov infected soil; details: NaD1 expressed in transgenic line 35.125.1, coated or uncoated
Experimental: Seed of the two lines were either not coated with fungicide or were coated with the fungicide HEC5725 (active ingredient fluoxastrobin, Bayer CropScience, batch number 06529/0022) at a rate of 1 mL/kg of seed, or with the commercial seed coat fungicides Dynasty® (Registered Trademark) (active ingredients 75 g/L azoxystrobin, 37.5 g/L metalaxyl-m, 12.5 g/L fludioxonil, Syngenta) at a rate of 2 mL/kg of seed, Jockey® (Registered Trademark) (active ingredient 167 g/L fluquinconazole, Bayer CropScience) at a rate of 20 mL/kg of seed or Redigo® (Registered Trademark) (active ingredient 100 g/L prothioconazole, Bayer CropScience) at a rate of 1 mL/kg of seed. All seed (coated and uncoated with fungicide) was coated with the insecticide Gaucho® (Registered Trademark) (600 g/L imidacloprid, Bayer CropScience) to control early season thrips and aphids. Seed was prepared to ensure even coating of fungicide and insecticide and allowed to dry prior to sowing.
Plants were grown at a farm in the Darling Downs region of Queensland, Australia. Seed was mechanically planted into soil known to be infected with Fusarium oxysporum f.sp. vasinfectum. […]
Emergence and plant survival were recorded. […] Statistical significance of the interaction of plant line and mortality was calculated using a Pearson's chi-square test.

filamentous fungi = type: cell-based; details: Fov, F. graminearum, F. oxysporum f. sp. dianthi and lycopersici, F. solani, F. pseudograminearum, C. heterostrophus, A. brassicola, G. graminis var. tritici, T. basicola, V. dahliae, A. nidulans, S. sclerotiorum, B. cinerea, L. maculans
Fusarium graminearum [15] = assay: microbe, parasite or virus in culture; type: cell-based
Verticillium dahliae [16] = assay: Field trial of transgenic and non-transgenic cotton seed coated with fungicide in Verticillium dahliae infected soil; type: in vivo
Leptosphaeria maculans [17] = assay: Fungal glasshouse bioassay of transgenic canola seedlings expressing NaD1; type: in vivo, canola (Brassica napus); details: NaD1 expressed in transgenic canola line CAT13.26
Pseudomonas aeruginosa = assay: Effect of NaD1 on bacterial growth; type: cell-based
Fov hyphae [18] = assay: Uptake of FITC-labeled dextrans into NaD1-treated hyphae
Experimental: The uptake of FITC-labeled dextran with NaD1 treatment of fungal hyphae was also studied. Fov hyphae were grown as described above and incubated with NaD1 (final concentration 0.1, 2, 10 or 50 μM) or an equivalent volume of water for 2 h at RT with gentle agitation. Hyphae were washed twice for 10 min with half-strength PDB to remove excess NaD1 before FITC dextrans of either 4 kDa (FD-4, Sigma-Aldrich) or 10 kDa (FD-10, Sigma-Aldrich) were added to a final concentration of 1 mg/mL. Hyphae were incubated for a further 30 min at RT and then washed twice with half strength PDB to remove excess dextrans. Fluorescence microscopy was used to visualize hyphae as described for SYTOX® green. A second assay was performed under the same conditions except the dextrans were added at the same time as NaD1.

[19] = system: Fusarium oxysporum f. sp. vasinfectum (Fov); type: cell-based; details: read-out: NaD1 IC50
Pichia pastoris = assay: Effect of NaD1 on growth of yeast strains
Experimental: as §1

Fov hyphae [20] = assay: Detection of reactive oxygen species (DHR123 oxidation) in response to NaD1; details: NaD1 0.1, 2 and 10 μM or 10 μM NaD1R&A
[21] = read-out: NaD1 IC50, growth inhibition

Experimental for HeLa cells: To examine the effect of NaD1 on mammalian cell growth, HeLa cells were seeded at 50% in Dulbecco's modified Eagle's medium (Gibco™-BRL) containing 10% (v/v) fetal calf serum with or without NaD1 (10 μM) at 37° C. under an atmosphere of 5% CO2 and 95% air in a 60 mm Petri dish. Cells were incubated for 48 h at 37° C. before they were stained with trypan blue to check viability and counted using a haemocytometer.

Q: Which “anti-NaD1 immunogold labeling of cytoplasm of granulated hyphae” value (Fov hyphae [1]) does the source give for “NaD1: plant defensin isolated from floral tissue of Nicotiana alata; also expressed in transgenic cotton line 35.125.1 and canola line CAT13.26 (RECKTESNTFPGICITKPPCRKACISEKFTDGHCSKILRRCLCTKPC; listed as Nicotiana alata)” here?
A: The value was “heavily labeled”.

Q: What about the effect on growth (Saccharomyces cerevisiae) of the same substance?
A: The effect on growth was “no effect”.

Q: What about the IC50 (Saccharomyces cerevisiae; [21]) of the same substance?
A: The IC50 was over 10 µM.

Q: And the “permeabilization of hyphae (SYTOX green)” value (Fov hyphae [2]; 0.1, 2 or 10 μM NaD1 or 10 μM NaD1R&A)?
A: The value was “permeabilized hyphae”.

Q: What about the “NaD1 concentration up to which Vmax (maximum rate of fluorescence increase) rose linearly; saturable above” value (Fov hyphae [2]; SYTOX green uptake) of the same substance?
A: The value was 6.25 µM.

Q: And the “time after which fluorescence began to plateau” value (Fov hyphae [2]; SYTOX green uptake over time)?
A: The value was 90 min.

Q: And the “NaD1 concentration up to which rate of permeabilization increased progressively” value (Fov hyphae [2]; above this (up to 50 μM) very little difference in kinetics)?
A: The value was 3 µM.

Q: And the “lag time before permeabilization” value (Fov hyphae [2]; all NaD1 concentrations, SYTOX green uptake over time)?
A: Its value is “around 20 min”.

Q: And the “SYTOX green uptake / permeabilization” value (Fov hyphae [2]; at 0° C. (relative to 4° C.))?
A: Its value is “reduced even further”.

Q: What about the “SYTOX green uptake / permeabilization” value (Fov hyphae [2]; at 4° C.) of the same substance?
A: Its value is “only a small degree of permeabilization”.

Q: And the “SYTOX green uptake / permeabilization” value (Fov hyphae [2]; at 10° C. (less than at 25° C.))?
A: The value was “substantial uptake of SYTOX® green”.

Q: And the SYTOX green uptake (Fov hyphae [2]; lowest concentration, 0.1 μM NaD1)?
A: Its SYTOX green uptake is “small amount of SYTOX® green uptake”.

Q: And the “CaCl2 concentration for complete inactivation of NaD1” value (Fov [3])?
A: The value was under 2 mM.

Q: And the “MgCl2 concentration for complete inactivation of NaD1” value (Fov [3])?
A: The value was 50 mM.

Q: And the “antagonism of Ca2+ relative to Mg2+” value (Fov [3])?
A: The value was “greater than 20 times”.

Q: And the IC50 (Verticillium dahliae [4])?
A: The IC50 was 0.75 µM.

Q: What about the “permeabilization activity among the plant defensins (ATP release)” value (F. graminearum hyphae [5]; 1 μM defensin) of the same substance?
A: Its value is “highest permeabilization activity”.

Q: And the ATP release (F. graminearum hyphae [5]; 0.125 to 10 μM NaD1)?
A: The ATP release was “concentration dependant release of ATP”.

Q: What about the IC50 (Thielaviopsis basicola) of the same substance?
A: Its IC50 is 0.8 µM.

Q: What about the SYTOX green uptake (F. graminearum hyphae [6]) of the same substance?
A: The SYTOX green uptake was “increases with increasing concentrations of NaD1”.

Q: What about the “synergy with tebuconazole (Io higher than Ee)” value (Fusarium graminearum [7]) of the same substance?
A: The value was “Synergy”.

Q: And the effect on growth (Candida albicans)?
A: The effect on growth was “no effect”.

Q: And the IC50 (Candida albicans; [21])?
A: Its IC50 is over 10 µM.

Q: And the mortality [8]?
A: Its mortality is “approximately half the mortality of the non-transgenic plants”.

Q: What about the mortality [9] of the same substance?
A: Its mortality is 7%.

Q: What about the effect on growth (Bacillus cereus; Gram-positive bacterial strain tested: Bacillus cereus) of the same substance?
A: The effect on growth was “no effect”.

Q: What about the IC50 (Bacillus cereus; growth inhibition, Bacillus cereus) of the same substance?
A: Its IC50 is over 10 µM.

Q: And the IC50 (Leptosphaeria maculans [10])?
A: Its IC50 is 0.8 µM.

Q: What about the effect on growth (Escherichia coli; Gram-negative bacterial strain tested: Escherichia coli) of the same substance?
A: The effect on growth was “no effect”.

Q: And the IC50 (Escherichia coli; growth inhibition, Escherichia coli)?
A: Its IC50 is over 10 µM.

Q: What about the IC50 (Aspergillus nidulans) of the same substance?
A: Its IC50 is 0.8 µM.

Q: And the “protection from pathological effects of Fov infection versus untransformed parent variety” value (Fov [11])?
A: The value was “significantly protected”.

Q: What about the effect on growth (Staphylococcus aureus; Gram-positive bacterial strain tested: Staphylococcus aureus) of the same substance?
A: Its effect on growth is “no effect”.

Q: And the IC50 (Staphylococcus aureus; growth inhibition, Staphylococcus aureus)?
A: Its IC50 is over 10 µM.

Q: And the toxicity to cells ([12]; Spodoptera frugiperda Sf-21 insect cells)?
A: The toxicity to cells was “not toxic”.

Q: And the IC50 ([12]; read-out: NaD1 IC50, growth inhibition, Spodoptera frugiperda (Sf21))?
A: Its IC50 is over 10 µM.

Q: What about the “time up to which amount of NaD1 in cytoplasm increased” value (Fov hyphae [13]; decreased slightly afterwards) of the same substance?
A: The value was 60 min.

Q: What about the “time at which NaD1 uptake into cytoplasm occurred” value (Fov hyphae [13]; immunoblotting of cytoplasmic contents) of the same substance?
A: Its value is 20 min.

Q: And the “resistance to fungal infection relative to non-transgenic lines” value [14]?
A: Its value is “more resistant to fungal infection than the non-transgenic lines”.

Q: And the toxicity to cells (HeLa cells; human HeLa cells)?
A: Its toxicity to cells is “not toxic”.

Q: What about the IC50 (HeLa cells; read-out: NaD1 IC50, growth inhibition, HeLa cells) of the same substance?
A: Its IC50 is over 10 µM.

Q: What about the “growth of filamentous fungi” value (filamentous fungi) of the same substance?
A: Its value is “inhibit growth”.

Q: What about the “toxicity with Fusarium graminearum” value (Fusarium graminearum [15]; 0.24 μM NaD1 in the absence of fungicide) of the same substance?
A: The value was “very low”.

Q: What about the “inhibition of fungal growth” value (Fusarium graminearum [15]; 0.5 μM defensin (alone)) of the same substance?
A: The value was “about 13%”.

Q: And the “yield versus untransformed Coker control” value (Verticillium dahliae [16]; transgenic line 35.125.1, seed coat not used)?
A: The value was “not significantly different”.

Q: And the “uninfected plants at the end of the trial” value (Verticillium dahliae [16]; transgenic line expressing NaD1, non-coated seeds)?
A: The value was 3.6%.

Q: What about the “average lesion size versus non-transgenic plants” value (Leptosphaeria maculans [17]; 10, 14 and 17 days after inoculation) of the same substance?
A: Its value is “significantly smaller”.

Q: What about the “disease scores versus non-transgenic RI64” value (Leptosphaeria maculans [17]; Days 10, 14 and 17) of the same substance?
A: Its value is “significantly lower disease scores”.

Q: What about the effect on growth (Pseudomonas aeruginosa; Gram-negative bacterial strain tested: Pseudomonas aeruginosa) of the same substance?
A: Its effect on growth is “no effect”.

Q: And the IC50 (Pseudomonas aeruginosa; growth inhibition, Pseudomonas aeruginosa)?
A: The IC50 was over 10 µM.

Q: What about the “entry of 10 kDa FITC-dextran (23 Å) into NaD1-treated hyphae” value (Fov hyphae [18]; even at very high concentrations of NaD1) of the same substance?
A: The value was “excluded”.

Q: What about the “entry of 4 kDa FITC-dextran (14 Å) into NaD1-treated hyphae” value (Fov hyphae [18]; same NaD1 concentration that led to SYTOX green uptake) of the same substance?
A: Its value is “entered hyphae”.

Q: What about the IC50 [19] of the same substance?
A: Its IC50 is 1 µM.

Q: And the effect on growth (Pichia pastoris)?
A: The effect on growth was “no effect”.

Q: What about the IC50 (Pichia pastoris; [21]) of the same substance?
A: Its IC50 is over 10 µM.

Q: What about the “ROS production (DHR123 oxidation fluorescence)” value (Fov hyphae [20]) of the same substance?
A: Its value is “concentration-dependent increase in fluorescence”.
